Test results taken from US11191878B2, “Kits for local delivery of water soluble agents and methods of use” (priority 2017, dated 2021).

Assays:
[1] = system: myofibroblast formation; settings: animal studies of capsular contracture with breast implants; cited from earlier work
[2] = system: fibrinolysis; experiment: tranexamic acid concentrations effective against fibrinolysis; settings: relative to doses used in the non-GLP acute porcine study
[3] = given preoperatively

Structure (SMILES) | myofibroblast formation [1] | dose effective in reversing fibrinolysis [2] | time to reach plasma concentrations [3] [min]
O=S(=O)([O-])CCS.[Na+] [MESNA, sodium 2-mercaptoethane sulfonate] | diminish myofibroblast formation |  | 
NC[C@H]1CC[C@H](C(=O)O)CC1 [tranexamic acid] |  | one tenth of the doses used in the non-GLP acute porcine study | 5 to 15
